What follows are compounds tested on HCV replicon, genotype-1a variant with glutamine 30 changed to glutamate in the NS5A protein (assay: microbe, parasite or virus in culture). Conditions: HCV replicon genotype 1a Q30E (Q→E) variant; test compound titrated with an NS5A-targeting compound (BMS-790052 fixed at 200 nM); ranking of synergist activity.
Type: cell-based, HCV genotype 1a
From the text: The NS5A synergistic inhibitory effect of test compounds can be determined using various amounts of an NS5A-targeting compound with titration of a second compound of interest. […] In one embodiment, the HCV genotype strain can be genotype 1a containing a change at amino acid 30 of the NS5A protein consisting of glutamine to glutamate. The test compound can be chosen from compounds listed above or from others present in the literature.

Row | Structure (SMILES) | Fold-Synergistic 1a (Q30E)
1 | CC(C)CC(=O)NC1(c2nc(-c3ccc(-c4ccc(-c5c[nH]c(C6(NC(=O)CC(C)C)CCC6)n5)cc4)cc3)c[nH]2)CCC1 [Compound N-11] | <10 fold
2 | CC(C)CC(=O)N[C@@H](Cc1ccccc1)c1nc(-c2ccc(-c3ccc(-c4c[nH]c([C@H](Cc5ccccc5)NC(=O)CC(C)C)n4)cc3)cc2)c[nH]1 [Compound P-6] | >10 fold
3 | CC1(C)CCCC(C)(C(=O)N[C@H](c2nc(-c3ccc(-c4ccc(-c5c[nH]c([C@@H](NC(=O)C6(C)CCCC(C)(C)O6)C(C)(C)C)n5)cc4)cc3)c[nH]2)C(C)(C)C)O1 (stereo partly shown) [Compound W-168] | >10 fold
4 | C[C@H]1CCN(C(=O)C(=O)N2CCC(F)(F)CC2)C1c1nc(-c2ccc(-c3ccc(-c4c[nH]c([C@@H]5[C@@H](C)CCN5C(=O)C(=O)N5CCC(F)(F)CC5)n4)cc3)cc2)c[nH]1 (stereo partly shown) [Compound W-187] | >100 fold
5 | CO[C@](C(=O)N[C@H](c1nc(-c2ccc(-c3ccc(-c4c[nH]c([C@@H](NC(=O)[C@@](OC)(c5ccccc5)C(F)(F)F)C(C)(C)C)n4)cc3)cc2)c[nH]1)C(C)(C)C)(c1ccccc1)C(F)(F)F [Compound P-141] | >100 fold
6 | CC(C)(C)C(=O)N1CCC[C@H]1c1ncc(-c2ccc(-c3ccc(-c4cnc([C@@H]5CCCN5C(=O)C(C)(C)C)[nH]4)cc3)cc2)[nH]1 [Compound S-177] | <10 fold
7 | COc1ccc2c(C(=O)N3CCC[C@H]3c3ncc(-c4ccc(-c5ccc(-c6cnc([C@@H]7CCCN7C(=O)c7nccc8cc(OC)ccc78)[nH]6)cc5)cc4)[nH]3)nccc2c1 [Compound S-198] | >100 fold
8 | CC(C)[C@H](NC(=O)C(=O)N1CCC(F)(F)CC1)c1nc(-c2ccc(-c3ccc(-c4c[nH]c([C@@H](NC(=O)C(=O)N5CCC(F)(F)CC5)C(C)C)n4)cc3)cc2)c[nH]1 [Compound W-51] | >100 fold
9 | CC(C)(C)[C@H](NC(=O)C1(CO)CCCCO1)c1nc(-c2ccc(-c3ccc(-c4c[nH]c([C@@H](NC(=O)C5(CO)CCCCO5)C(C)(C)C)n4)cc3)cc2)c[nH]1 (stereo partly shown) [Compound P-181] | >100 fold
10 | CC(C)(C(=O)N[C@H](c1nc(-c2ccc(-c3ccc(-c4c[nH]c([C@@H](NC(=O)C(C)(C)C(=O)N5CC6CCC(C5)O6)C(C)(C)C)n4)cc3)cc2)c[nH]1)C(C)(C)C)C(=O)N1CC2CCC(C1)O2 [Compound W-145] | >10 fold
11 | Cc1cc(-c2ccc(-c3c[nH]c([C@@H](NC(=O)c4c(F)cccc4Cl)C(C)C)n3)cc2)ccc1-c1c[nH]c([C@@H](NC(=O)c2c(F)cccc2Cl)C(C)C)n1 [Compound N-81] | >100 fold
12 | Cc1cc(-c2ccc(-c3c[nH]c([C@@H](NC(=O)C4(C)CCCCC4)C(C)C)n3)cc2)ccc1-c1c[nH]c([C@@H](NC(=O)C2(C)CCCCC2)C(C)C)n1 [Compound N-79] | >100 fold
13 | CC(C)[C@H](O)C(=O)N[C@H](c1nc(-c2ccc(-c3ccc(-c4c[nH]c([C@@H](NC(=O)[C@@H](O)C(C)C)C(C)(C)C)n4)cc3)cc2)c[nH]1)C(C)(C)C [Compound L-78] | >100 fold
14 | CC(C)(C)OC(=O)N1C[C@@H](F)C[C@H]1C(=O)N[C@H](c1nc(-c2ccc(-c3ccc(-c4c[nH]c([C@@H](NC(=O)[C@@H]5C[C@H](F)CN5C(=O)OC(C)(C)C)C(C)(C)C)n4)cc3)cc2)c[nH]1)C(C)(C)C [Compound W-83] | >100 fold
15 | COC(=O)N[C@H](C(=O)NC1(c2nc(-c3ccc(-c4ccc(-c5c[nH]c(C6(NC(=O)[C@@H](NC(=O)OC)C(C)C)CC=CC6)n5)cc4)cc3)c[nH]2)CC=CC1)C(C)C [Compound N-15] | <10 fold
16 | CC(C)[C@H](NC(=O)C1(N2CCC(F)(F)CC2)COC1)c1nc(-c2ccc(-c3ccc(-c4c[nH]c([C@@H](NC(=O)C5(N6CCC(F)(F)CC6)COC5)C(C)C)n4)cc3)cc2)c[nH]1 [Compound W-64] | >100 fold

— US9326973B2, “Hepatitis C virus inhibitors” (priority 2012, dated 2016)
